Key:
RAW264.7 [1] = assay: Anti-inflammatory activity in mouse RAW264.7 cells assessed as inhibition of lipopolysaccharide-induced nitric oxide production incubated for 24 hrs coincubated with LPS by Griess reagent based assay; type: functional, cell-based; details: RAW264.7, 24 h
[2] = Cytotoxicity against mouse RAW264.7 cells assessed as reduction in cell viability by MTT assay; type: cell-based
[3] = target: T1, Phosphotyrosine protein phosphatase (Mycobacterium tuberculosis, UniProt A0A045ISB3); assay: Inhibition of Mycobacterium tuberculosis H37Ra PTPB expressed in Escherichia coli BL21 (DE3) using p-nitrophenyl phosphate as substrate preincubated for 10 mins followed by substrate addition and measured for 5 mins by spectrophotometric analysis
T1 sequence (A0A045ISB3 whole entry): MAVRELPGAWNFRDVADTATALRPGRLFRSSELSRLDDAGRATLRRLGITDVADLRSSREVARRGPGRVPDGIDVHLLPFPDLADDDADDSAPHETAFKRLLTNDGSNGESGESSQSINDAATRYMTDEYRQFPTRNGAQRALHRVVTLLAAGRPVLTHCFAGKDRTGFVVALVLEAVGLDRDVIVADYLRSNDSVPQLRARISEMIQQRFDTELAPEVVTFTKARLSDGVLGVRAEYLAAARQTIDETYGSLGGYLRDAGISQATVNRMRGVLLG

RAW264.7 [4] = assay: Anti-inflammatory activity in mouse RAW264.7 cells assessed as inhibition of lipopolysaccharide-induced nitric oxide production at 50 uM incubated for 24 hrs coincubated with LPS by Griess reagent based assay; type: functional; details: RAW264.7, 24 h
[5] = target: T1, Phosphotyrosine protein phosphatase; assay: Inhibition of Mycobacterium tuberculosis H37Ra PTPB using p-nitrophenyl phosphate as substrate

## COc1ccc2c(c1)c(CC(=O)O)c(C)n2C(=O)c1ccc(Cl)cc1 [INDOMETHACIN]
RAW264.7 [1]
  IC50: 38 µM
[2]
  CC50: > 50 µM

## CC1=CC(=O)[C@H]2/C(C=O)=C\C[C@H]3[C@@H]([C@@H](C)/C=C\[C@@H]4OC4(C)C)CC[C@]3(C)C[C@H]12
RAW264.7 [1]
  IC50: 24 µM
[2]
  CC50: > 50 µM
[3]
  IC50: 35 µM

## CC(C)=C/C=C\[C@H](C)[C@H]1CC[C@]2(C)C[C@H]3[C@@H]4/C(=C\C[C@@H]12)C(=O)O[C@]4(O)C[C@@]3(C)O
RAW264.7 [1]
  IC50: > 50 µM
[2]
  CC50: > 50 µM
[3]
  IC50: 36 µM

## CC(C)=C/C=C\[C@H](C)[C@H]1CC[C@]2(C)C[C@H]3[C@@H](C(=O)C[C@@]3(C)O)/C(C=O)=C\C[C@@H]12
[2]
  CC50: 15 µM
[3]
  IC50: > 50 µM

## CC(C)=C/C=C\[C@H](C)[C@H]1CC[C@]2(C)C[C@@H]3C(C)=CC(=O)[C@H]3/C(CO)=C\C[C@@H]12
RAW264.7 [1]
  IC50: 25 µM
[2]
  CC50: > 50 µM
[3]
  IC50: 37 µM

## CC(C)=C/C=C\[C@H](C)[C@H]1CC[C@]2(C)C[C@@H]3C(C)=CC(=O)[C@H]3/C(C(=O)O)=C\C[C@@H]12
RAW264.7 [1]
  IC50: > 50 µM
[2]
  CC50: > 50 µM
[3]
  IC50: 28 µM

## CC1=CC(=O)[C@@H]2/C(C=O)=C\C[C@H]3[C@@H]([C@@H](C)/C=C\[C@@H](O)C(C)(C)O)CC[C@]3(C)C[C@H]12
RAW264.7 [1]
  IC50: > 50 µM
[2]
  CC50: > 50 µM
[3]
  IC50: > 50 µM
RAW264.7 [4]
  inhibition at 50 µM: < 40%

## CC(C)=C/C=C\[C@H](C)[C@H]1CC[C@]2(C)C[C@H]3[C@H](C(=O)C[C@@]3(C)O)/C(C=O)=C\C[C@@H]12
[2]
  CC50: 4.8 µM
[3]
  IC50: > 50 µM

## CC(C)=C/C=C\[C@H](C)[C@H]1CC[C@]2(C)C[C@@]3(O)[C@H](C)C[C@@H](O)[C@@H]3/C(C=O)=C\C[C@@H]12
RAW264.7 [1]
  IC50: > 50 µM
[2]
  CC50: > 50 µM
[3]
  IC50: > 50 µM

## CC(C)=C/C=C\[C@H](C)[C@H]1CC[C@]2(C)C[C@H]3[C@@H](/C(C=O)=C\C[C@@H]12)[C@H](O)C[C@@]3(C)O
RAW264.7 [1]
  IC50: 9.6 µM
[2]
  CC50: > 50 µM
[3]
  IC50: > 50 µM

## CC(C)=C/C=C\[C@H](C)[C@H]1CC[C@]2(C)C[C@@H]3C(C)=CC(=O)[C@@H]3/C(C=O)=C\C[C@@H]12
[2]
  CC50: 21 µM
[3]
  IC50: 24 µM

## CO[C@]12C[C@@](C)(O)[C@H]3C[C@@]4(C)CC[C@H]([C@@H](C)/C=C\C=C(C)C)[C@@H]4C/C=C(/C(=O)N1)[C@@H]32
RAW264.7 [1]
  IC50: 42 µM
[2]
  CC50: > 50 µM
[3]
  IC50: 42 µM

## CO[C@]12C[C@@](C)(O)[C@H]3C[C@@]4(C)CC[C@H]([C@@H](C)/C=C\C=C(C)C)/C4=C/C=C(/C(=O)N1)[C@@H]32
RAW264.7 [1]
  IC50: > 50 µM
[2]
  CC50: > 50 µM
[3]
  IC50: > 50 µM

## CC(C)=C/C=C\[C@H](C)[C@H]1CC[C@]2(C)C[C@H]3[C@@H]4/C(=C\C=C\12)C(=O)N[C@@H]4C[C@@]3(C)O
RAW264.7 [1]
  IC50: > 50 µM
[2]
  CC50: > 50 µM
[3]
  IC50: > 50 µM

## CC(C)=C/C=C\[C@H](C)[C@H]1CC[C@]2(C)CC3=C(C(=O)C[C@H]3C)/C(CO)=C\C[C@@H]12
RAW264.7 [1]
  IC50: 14 µM
[2]
  CC50: > 50 µM
[3]
  IC50: > 50 µM

## CC1=CC(=O)[C@H]2/C(C=O)=C\C[C@H]3[C@@H]([C@@H](C)/C=C\[C@@H](O)C(C)(C)O)CC[C@]3(C)C[C@H]12
RAW264.7 [1]
  IC50: > 50 µM
[2]
  CC50: > 50 µM
[3]
  IC50: > 50 µM

## CC(C)[C@H]1CC[C@@]2(C)CC[C@]3(CO)CC4=C(C(=O)O)CC[C@H]4[C@]4(C)C[C@@H]4[C@H]3[C@H]12
[5]
  IC50: 2.2 µM

## CC(C)=C/C=C\[C@H](C)[C@H]1CC[C@]2(C)C[C@H]3[C@@H]4/C(=C\C=C\12)C(=O)N[C@]4(O)C[C@@]3(C)O
RAW264.7 [1]
  IC50: > 50 µM
[2]
  CC50: > 50 µM
[3]
  IC50: 39 µM

## C[C@@H](/C=C\[C@H](O)C(C)(C)O)[C@H]1CC[C@]2(C)C[C@H]3[C@@H](C(=O)C[C@@]3(C)O)/C(C=O)=C\C[C@@H]12
RAW264.7 [1]
  IC50: 16 µM
[2]
  CC50: > 50 µM
[3]
  IC50: > 50 µM

## CC(C)=C/C=C\[C@H](C)[C@H]1CC[C@]2(C)C[C@H]3[C@@H]4/C(=C\C[C@@H]12)CO[C@]4(O)C[C@@]3(C)O
[2]
  CC50: 18 µM
[3]
  IC50: > 50 µM

## CC(C)=C/C=C\[C@H](C)[C@H]1CC[C@]2(C)C[C@H]3[C@H]4/C(=C\C[C@@H]12)C(=O)O[C@H]4C[C@@]3(C)O
[2]
  CC50: 29 µM
[3]
  IC50: > 50 µM

## CC(C)=C/C=C\[C@H](C)[C@H]1CC[C@]2(C)C[C@H]3[C@H]4/C(=C\C[C@@H]12)CO[C@@]4(O)C[C@@]3(C)O
[2]
  CC50: 31 µM
[3]
  IC50: > 50 µM

## CC1=CC(=O)[C@H]2/C(C=O)=C\C[C@H]3[C@@H]([C@@H](C)/C=C\[C@H](O)C(C)(C)O)CC[C@]3(C)C[C@H]12
RAW264.7 [1]
  IC50: 14 µM
[2]
  CC50: > 50 µM
[3]
  IC50: > 50 µM

## CC(C)=C/C=C\[C@H](C)[C@H]1CC[C@]2(C)C[C@@H]3C(C)=CC(=O)[C@H]3/C(C=O)=C\C[C@@H]12
[2]
  CC50: 3.8 µM
[3]
  IC50: > 50 µM

## CC1=CC(=O)[C@@H]2/C(C=O)=C\C[C@H]3[C@@H]([C@@H](C)/C=C\[C@H](O)C(C)(C)O)CC[C@]3(C)C[C@H]12
RAW264.7 [1]
  IC50: 21 µM
[2]
  CC50: > 50 µM
[3]
  IC50: 19 µM

Source: ChEMBL document CHEMBL4387790, “Ophiobolin-Type Sesterterpenoids from the Mangrove Endophytic Fungus Aspergillus sp. ZJ-68” (J Nat Prod, 2019)
